From patent US9926299B2, “Inhibitors of bruton's tyrosine kinase” (Centaurus BioPharma Co., Ltd., priority 2012, dated 2018)

Experiments:
BTK kinase = BTK kinase (Homo sapiens (Human), UniProt Q06187); assay: Btk kinase enzymatic assay (HTRF); format: biochemical; conditions: ATP at Km
Protocol: Btk kinase activity was determined using a Homogeneous Time-Resolved Fluorescence (HTRF) methodology (Cisbio). […] The mixture was centrifuged and incubated for 5 min. […] For each compound, enzyme activity was measured at various concentrations of compound, and IC50s were obtained by GraFit Software 6.0 (Erithacus Software).

Ramos cells = assay: BCR-induced calcium flux fluorescence-based assay in Ramos cells; conditions: Ramos cells stimulated with goat anti-human IgM antibody; read-out: Ramos Cell Ca Flux IC50
Protocol: Calcium flux fluorescence-based assays were performed using Fluo-4 Direct™ Calcium Assay Kits (purchased from Invitrogen) in a FlexStation III (purchased from Molecular Devices) according to manufacturer instructions. In brief, actively growing Romas cells in RPM1-1640 medium (purchased from Invitrogen) supplemented with 10% FBS (purchased from Hyclone) were washed and re-plated in low serum medium at approximately 1×10^5 cells per 45 μL per well in a 96-well plate (purchased from Corning), then added 45 μL of dye (purchased from Invitrogen) and incubated at 37 degree for 1 hour. Compounds to be assayed were dissolved and 3-fold serially diluted in DMSO and then diluted by 100 times in low serum medium. Then 10 μL of the diluted mixture were added to the above 96-well plate (final DMSO concentration was 0.1%) and incubated at 37 degree in 5% CO2 incubator for 0.5 hour. The compound-treated cells were stimulated with a goat anti-human IgM antibody (10 μg/ml; purchased from SouthernBiotech) and read in the FlexStation III using a λEx=494 nM and […] for 90 seconds. The relative fluorescence unit (RFU) and the IC50 were recorded and analyzed using a GraphPad Prism 5 (GraphPad Software).

Sequence of BTK kinase (Q06187 whole entry): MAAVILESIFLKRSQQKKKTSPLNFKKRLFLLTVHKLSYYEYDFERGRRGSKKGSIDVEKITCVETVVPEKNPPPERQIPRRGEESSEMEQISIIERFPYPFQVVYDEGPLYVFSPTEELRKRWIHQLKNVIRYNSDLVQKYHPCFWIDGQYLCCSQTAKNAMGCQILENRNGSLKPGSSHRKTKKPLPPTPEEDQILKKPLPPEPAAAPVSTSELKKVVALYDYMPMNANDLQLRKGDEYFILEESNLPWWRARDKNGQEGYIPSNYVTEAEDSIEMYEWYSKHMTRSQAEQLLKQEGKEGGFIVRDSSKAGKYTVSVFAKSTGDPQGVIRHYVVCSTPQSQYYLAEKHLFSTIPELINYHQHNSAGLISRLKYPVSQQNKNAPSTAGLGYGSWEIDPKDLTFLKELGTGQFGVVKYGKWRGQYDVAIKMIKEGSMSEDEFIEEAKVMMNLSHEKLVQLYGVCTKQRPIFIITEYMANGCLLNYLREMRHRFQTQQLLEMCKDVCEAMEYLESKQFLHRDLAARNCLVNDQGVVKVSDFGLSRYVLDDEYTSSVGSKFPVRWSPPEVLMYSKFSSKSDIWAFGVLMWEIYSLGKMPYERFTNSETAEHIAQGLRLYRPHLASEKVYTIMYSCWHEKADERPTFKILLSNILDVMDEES

Row | IC50 (BTK kinase) [nM] | IC50 (Ramos cells) [nM] | Structure (SMILES)
1 | < 100 | < 100 | C=CC(=O)N1CC[C@@H](n2nc(-c3ccc(Oc4ccccc4)cc3)c(C(N)=O)c2N)C1 [25 (R-isomer)]
2 | < 100 | < 100 | C=CC(=O)N1CC[C@H](n2nc(-c3ccc(Oc4ccccc4)cc3)c(C(N)=O)c2N)C1 [25 (S-isomer)]
3 | < 100 | < 100 | C=CS(=O)(=O)N1CCC[C@@H](n2nc(-c3ccc(Oc4ccccc4)cc3)c(C(N)=O)c2N)C1 [27 (R-isomer)]
4 | < 100 | < 100 | C=CC(=O)N1CCCC(n2nc(-c3ccc(Oc4ccccc4)cc3)c(C(N)=O)c2NC)C1 (stereo not shown) [Example 1, 1-(1-acryloylpiperidin-3-yl)-5-(methylamino)-3-(4-phenoxyphenyl)-1H-pyrazole-4-carboxamide]
5 | < 100 | < 100 | C=CC(=O)N1CCC[C@@H](n2nc(-c3ccc(Oc4ccccc4)cc3)c(C(N)=O)c2NC)C1 [Example 2, (R)-1-(1-acryloylpiperidin-3-yl)-5-(methylamino)-3-(4-phenoxyphenyl)-1H-pyrazole-4-carboxamide]
6 | < 100 | < 100 | C=CC(=O)N1CCCC(n2nc(-c3ccc(Oc4ccccc4)cc3)c(C(N)=O)c2NCC)C1 (stereo not shown) [Example 6, 1-(1-acryloylpiperidin-3-yl)-5-(ethylamino)-3-(4-phenoxyphenyl)-1H-pyrazole-4-carboxamide]
7 | < 100 | < 100 | C=CC(=O)N1CCCC(n2nc(-c3ccc(Oc4ccccc4)cc3)c(C(N)=O)c2NCCN2CCOCC2)C1 (stereo not shown) [Example 13, 1-(1-acryloylpiperidin-3-yl)-5-(2-morpholinoethylamino)-3-(4-phenoxy-phenyl)-1H-pyrazole-4-carboxamide]
8 | < 100 | < 100 | C=CC(=O)N1CCCC(n2nc(-c3ccc(Oc4ccccc4)cc3)c(C(N)=O)c2NCCN2CCN(C)CC2)C1 (stereo not shown) [Example 15, 1-(1-acryloylpiperidin-3-yl)-5-(2-(4-methylpiperazin-1-yl)ethylamino)-3-(4-phenoxy-phenyl)-1H-pyrazole-4-carboxamide]
9 | – | < 100 | C=CC(=O)N1CCC[C@@H](n2nc(-c3ccc(Oc4ccccc4)cc3)c(C(N)=O)c2N)C1 [Example 18, (R)-1-(1-acryloylpiperidin-3-yl)-5-amino-3-(4-phenoxyphenyl)-1H-pyrazole-4-carboxamide]
10 | < 100 | < 100 | NC(=O)c1c(-c2ccc(Oc3ccccc3)cc2)nn(C2CCCCC2)c1N [Example 20, 5-amino-1-cyclohexyl-3-(4-phenoxyphenyl)-1H-pyrazole-4-carboxamide]
11 | – | < 100 | C=CC(=O)N1CCCC(n2nc(-c3ccc(Oc4ccccc4)cc3)c(C(N)=O)c2N)C1 (stereo not shown) [Example 22, 1-(1-acryloylpiperidin-3-yl)-5-amino-3-(4-phenoxyphenyl)-1H-pyrazole-4-carboxamide]
12 | – | < 100 | C=CC(=O)N1CCC[C@H](n2nc(-c3ccc(Oc4ccccc4)cc3)c(C(N)=O)c2N)C1 [Example 23, (S)-1-(1-acryloylpiperidin-3-yl)-5-amino-3-(4-phenoxyphenyl)-1H-pyrazole-4-carboxamide]
13 | < 100 | < 100 | C=CC(=O)N1CCC(n2nc(-c3ccc(Oc4ccccc4)cc3)c(C(N)=O)c2N)CC1 [Example 24, 1-(1-acryloylpiperidin-4-yl)-5-amino-3-(4-phenoxyphenyl)-1H-pyrazole-4-carboxamide]
14 | < 100 | < 100 | C=CC(=O)N1CCC(n2nc(-c3ccc(Oc4ccccc4)cc3)c(C(N)=O)c2N)C1 (stereo not shown) [Example 25, 1-(1-acryloylpyrrolidin-3-yl)-5-amino-3-(4-phenoxyphenyl)-1H-pyrazole-4-carboxamide]
15 | < 100 | < 100 | C#CC(=O)N1CCCC(n2nc(-c3ccc(Oc4ccccc4)cc3)c(C(N)=O)c2N)C1 (stereo not shown) [Example 26, 5-amino-3-(4-phenoxyphenyl)-1-(1-propioloylpiperidin-3-yl)-1H-pyrazole-4-carboxamide]
16 | < 100 | < 100 | C=CS(=O)(=O)N1CCCC(n2nc(-c3ccc(Oc4ccccc4)cc3)c(C(N)=O)c2N)C1 (stereo not shown) [Example 27, 5-amino-3-(4-phenoxyphenyl)-1-(1-(vinylsulfonyl)piperidin-3-yl)-1H-pyrazole-4-carboxamide]

Row | IC50 (BTK kinase) [nM] | IC50 (Ramos cells) [nM] | Structure (SMILES)
17 | < 100 | < 100 | NC(=O)c1c(-c2ccc(Oc3ccccc3)cc2)nn(C2CCCN(C(=O)CCl)C2)c1N (stereo not shown) [Example 28, 5-amino-1-(1-(2-chloroacetyl)piperidin-3-yl)-3-(4-phenoxyphenyl)-1H-pyrazole-4-carboxamide]
18 | < 100 | < 100 | CN(C)C/C=C/C(=O)N1CCCC(n2nc(-c3ccc(Oc4ccccc4)cc3)c(C(N)=O)c2N)C1 (stereo not shown) [Example 29, (E)-5-amino-1-(1-(4-(dimethylamino)but-2-enoyl)piperidin-3-yl)-3-(4-phenoxyphenyl)-1H-pyrazole-4-carboxamide]
19 | < 100 | < 100 | C=CC(=O)N(C)CCn1nc(-c2ccc(Oc3ccccc3)cc2)c(C(N)=O)c1N [Example 30, 5-amino-1-(2-(N-methylacrylamido)ethyl)-3-(4-phenoxyphenyl)-1H-pyrazole-4-carboxamide]
20 | < 100 | < 100 | C=CC(=O)NCCn1nc(-c2ccc(Oc3ccccc3)cc2)c(C(N)=O)c1N [Example 31, 1-(2-acrylamidoethyl)-5-amino-3-(4-phenoxyphenyl)-1H-pyrazole-4-carboxamide]
21 | < 100 | < 100 | C#CC(=O)N(C)CCn1nc(-c2ccc(Oc3ccccc3)cc2)c(C(N)=O)c1N [Example 32, 5-amino-1-(2-(N-methylpropiolamido)ethyl)-3-(4-phenoxyphenyl)-1H-pyrazole-4-carboxamide]
22 | < 100 | < 100 | C=CS(=O)(=O)N(C)CCn1nc(-c2ccc(Oc3ccccc3)cc2)c(C(N)=O)c1N [Example 33, 5-amino-1-(2-(N-methylvinylsulfonamido)ethyl)-3-(4-phenoxyphenyl)-1H-pyrazole-4-carboxamide]
23 | < 100 | < 100 | CN(CCn1nc(-c2ccc(Oc3ccccc3)cc2)c(C(N)=O)c1N)C(=O)CCl [Example 34, 5-amino-1-(2-(2-chloro-N-methylacetamido)ethyl)-3-(4-phenoxyphenyl)-1H-pyrazole-4-carboxamide]
24 | < 100 | < 100 | CN(C)C/C=C/C(=O)N(C)CCn1nc(-c2ccc(Oc3ccccc3)cc2)c(C(N)=O)c1N [Example 35, (E)-5-amino-1-(2-(4-(dimethylamino)-N-methylbut-2-enamido)ethyl)-3-(4-phenoxyphenyl)-1H-pyrazole-4-carboxamide]
25 | < 100 | < 100 | C=CC(=O)N1CCCC(n2nc(-c3ccc(Oc4ccccc4)cc3)c(C(N)=S)c2N)C1 (stereo not shown) [Example 37, 1-(1-acryloylpiperidin-3-yl)-5-amino-3-(4-phenoxyphenyl)-1H-pyrazole-4-carbothioamide]
26 | < 100 | < 100 | C=CC(=O)N1CC[C@@H](n2nc(-c3ccc(Oc4cc(F)cc(F)c4)cc3)c(C(N)=O)c2N)C1 [Example 41, (R)-1-(1-acryloylpyrrolidin-3-yl)-5-amino-3-(4-(3,5-difluorophenoxyl)phenyl)-1H-pyrazole-4-carboxamide]
27 | < 100 | < 100 | C=CC(=O)N1CC[C@@H](n2nc(-c3ccc(Oc4cccc(OC)c4)cc3)c(C(N)=O)c2N)C1 [Example 42, (R)-1-(1-acryloylpyrrolidin-3-yl)-5-amino-3-(4-(3-methoxyphenoxyl)phenyl)-1H-pyrazole-4-carboxamide]
28 | < 100 | < 100 | C=CC(=O)N1CC[C@@H](n2nc(-c3ccc(Oc4ccc(Cl)cc4)cc3)c(C(N)=O)c2N)C1 [Example 43, (R)-1-(1-acryloylpyrrolidin-3-yl)-5-amino-3-(4-(4-chlorophenoxyl)phenyl)-1H-pyrazole-4-carboxamide]
29 | < 100 | < 100 | C=CC(=O)N1CC[C@@H](n2nc(-c3ccc(Oc4cccc(C(F)(F)F)c4)cc3)c(C(N)=O)c2N)C1 [Example 44, (R)-1-(1-acryloylpyrrolidin-3-yl)-5-amino-3-(4-(3-(trifluoromethyl)phenoxy)phenyl)-1H-pyrazole-4-carboxamide]
30 | < 100 | < 100 | C=CC(=O)N1CC[C@@H](n2nc(-c3ccc(Oc4ccccc4Cl)cc3)c(C(N)=O)c2N)C1 [Example 45, (R)-1-(1-acryloylpyrrolidin-3-yl)-5-amino-3-(4-(2-chlorophenoxyl)phenyl)-1H-pyrazole-4-carboxamide]
31 | < 100 | < 100 | C=CC(=O)N1CC[C@@H](n2nc(-c3ccc(Oc4ccc(OC)cc4)cc3)c(C(N)=O)c2N)C1 [Example 46, (R)-1-(1-acryloylpyrrolidin-3-yl)-5-amino-3-(4-(4-methoxyphenoxyl)phenyl)-1H-pyrazole-4-carboxamide]
32 | < 100 | < 100 | C=CC(=O)N1CC[C@@H](n2nc(-c3ccc(Oc4cc([N+](=O)[O-])ccc4C)cc3)c(C(N)=O)c2N)C1 [Example 47, (R)-1-(1-acryloylpyrrolidin-3-yl)-5-amino-3-(4-(2-methyl-5-nitrophenoxy)phenyl)-1H-pyrazole-4-carboxamide]
